We go through two compounds from patent US6432953B1, “Polymorphic form of a tachykinin receptor antagonist” (Merck & Co., Inc., priority 1997, dated 2002).

Data set [1] is described as follows: Solubility in methanol/water. It is filed as physicochemical. The note with it: for solubility: 2/1 (v/v) methanol/water, 0 °C, organic solvent or mixture, thermodynamic from solid. On the procedure: The solubility of Form I in 2/1 (v/v) methanol/water at 0° C. was determined to be 0.9±0.1 mg/ml. The solubility of Form II in 2/1 (v/v) methanol/water at 0C was determined to be 1.3±0.2 mg/ml.

A short description of data set [2]: Hygroscopicity. It is filed as physicochemical.
The nature of data set [3]: Thermal stability. It is filed as physicochemical.
Data set [4] is described as follows: Vapor pressure by Knudsen effusion techniques. Type of data set: physicochemical. The note with it: at elevated temperatures, Form I compared with Form II. An excerpt: The vapor pressures of Form I and Form II at elevated temperatures were similar when examined with Knudsen effusion techniques.
The subject of data set [5] is cisplatin-induced emesis. Nature of the data set: Ferret model of cisplatin-induced emesis. It is filed as in vivo. The settings on record: model of Tattersall et al.

≈ marks a conversion by molar mass, not a printed value.

Turning to `CC(OC1OCCN(Cc2n[nH]c(=O)[nH]2)[C@H]1c1ccc(F)cc1)c1cc(C(F)(F)F)cc(C(F)(F)F)c1` (stereo partly drawn) [Form II], in data set [1] (2/1 (v/v) methanol/water at 0C), the solubility (commonly the dissolved amount per volume that the medium holds) was 1300 ± 200 µg/mL (≈ 2430 µM).

Turning to `CC(OC1OCCN(Cc2n[nH]c(=O)[nH]2)[C@H]1c1ccc(F)cc1)c1cc(C(F)(F)F)cc(C(F)(F)F)c1` (stereo partly drawn) [Form I], in data set [1], the “ratio of the solubilities” value is recorded as 1.4. Moreover, the solubility in data set [1] (2/1 (v/v) methanol/water at 0° C.) is 900 ± 100 µg/mL (≈ 1680 µM). The “more stable than Form II by” value in data set [1] (thermodynamic stability difference between polymorphs, from solubility ratio) amounted to 0.2 kcal/mol. Further, in data set [2], the hygroscopicity entry is reported as “non-hygroscopic”. Moreover, the thermal stability result in data set [3] (as a neat solid) and in data set [3] (in hydroalcoholic solution) was “high degree of thermal stability” in each case. Also, the vapor pressures entry in data set [4] is reported as “similar”. Besides, the “retching and vomiting induced by cisplatin” value in data set [5] is “attenuate the retching and vomiting induced by cisplatin”.
